Data as given in PubChem BioAssay AID248 (DTP/NCI, 2004).
Inconclusive results and toxic doses are left out. Cut-off read from the data, not from the text of the source: active = T/C of 150% or more; inactive = T/C below 125%.

System: L1210 leukemia ip in BDF1 mice, survival T/C
Assay: NCI In Vivo Anticancer Drug Screen. Data for tumor model L1210 Leukemia (intraperitoneal) in B6D2F1 (BDF1) mice
Settings: endpoint: mean survival time, higher = longer survival
Outline: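 Tumor was transplanted into mice, which were then dosed with test compound or vehicle alone. Survival was recorded for each group, and the treated figure was expressed relative to the control figure.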

[1] = dose: 100.0 mg/kg/injection, schedule: Q01DX001 (ip), vehicle: saline with Tween-80
[2] = dose: 100.0 mg/kg/injection, schedule: Q01DX009 (ip), vehicle: saline with Tween-80
[3] = dose: 100.0 mg/kg/injection, schedule: Q04DX003 (ip), vehicle: Klucel (hydroxypropylcellulose) (HPC)
[4] = dose: 200.0 mg/kg/injection, schedule: Q01DX001 (ip), vehicle: saline with Tween-80
[5] = dose: 200.0 mg/kg/injection, schedule: Q01DX009 (ip), vehicle: saline with Tween-80
[6] = dose: 200.0 mg/kg/injection, schedule: Q04DX003 (ip), vehicle: Klucel (hydroxypropylcellulose) (HPC)
[7] = dose: 400.0 mg/kg/injection, schedule: Q01DX001 (ip), vehicle: saline with Tween-80
[8] = dose: 400.0 mg/kg/injection, schedule: Q01DX009 (ip), vehicle: saline with Tween-80
[9] = dose: 400.0 mg/kg/injection, schedule: Q04DX003 (ip), vehicle: Klucel (hydroxypropylcellulose) (HPC)
[10] = dose: 100.0 mg/kg/injection, schedule: Q04DX003 (ip), vehicle: saline with Tween-80
[11] = dose: 200.0 mg/kg/injection, schedule: Q04DX003 (ip), vehicle: saline with Tween-80
[12] = dose: 400.0 mg/kg/injection, schedule: Q04DX003 (ip), vehicle: saline with Tween-80
[13] = dose: 100.0 mg/kg/injection, schedule: Q01DX009 (ip), vehicle: Klucel (hydroxypropylcellulose) (HPC)
[14] = dose: 200.0 mg/kg/injection, schedule: Q01DX009 (ip), vehicle: Klucel (hydroxypropylcellulose) (HPC)
[15] = dose: 25.0 mg/kg/injection, schedule: Q01DX009 (ip), vehicle: saline
[16] = dose: 25.0 mg/kg/injection, schedule: Q04DX003 (ip), vehicle: saline
[17] = dose: 50.0 mg/kg/injection, schedule: Q01DX009 (ip), vehicle: saline
[18] = dose: 50.0 mg/kg/injection, schedule: Q04DX003 (ip), vehicle: saline
[19] = dose: 100.0 mg/kg/injection, schedule: Q01DX009 (ip), vehicle: saline
[20] = dose: 100.0 mg/kg/injection, schedule: Q04DX003 (ip), vehicle: saline

Measured: T/C

CCC[CH2][Sn](=[O])[CH2]CCC
inactive: dose: 1.5 mg/kg/injection, schedule: Q01DX001 (ip), vehicle: saline with Tween-80 90 % of control | dose: 3.0 mg/kg/injection, schedule: Q01DX001 (ip), vehicle: saline with Tween-80 100 % of control | dose: 6.0 mg/kg/injection, schedule: Q01DX001 (ip), vehicle: saline with Tween-80 107 % of control

[Cl][Pb]([Cl])([c]1ccccc1)[c]1ccccc1
inactive: dose: 12.5 mg/kg/injection, schedule: Q04DX002 (ip), vehicle: Klucel (hydroxypropylcellulose) (HPC) 88 % of control | dose: 25.0 mg/kg/injection, schedule: Q04DX002 (ip), vehicle: Klucel (hydroxypropylcellulose) (HPC) 88 % of control | dose: 50.0 mg/kg/injection, schedule: Q04DX002 (ip), vehicle: Klucel (hydroxypropylcellulose) (HPC) 91 % of control

COc1cc(C)ccc1C(=O)c1ccc(C)cc1OC
inactive: [1] 100 % of control | [2] 98 % of control | [3] 86 % of control | [4] 100 % of control | [5] 92 % of control | [6] 93 % of control | [7] 92 % of control | [8] 103 % of control | [9] 93 % of control

OC1CC2C=C(c3ccccc3)C1C2 (stereo not given)
inactive: [10] 96 % of control | [11] 93 % of control | [12] 88 % of control

CC1C2Cc3ccc(O)cc3C1(C)CCN2C/C=C\Cl (stereo not given)
inactive: [2] 94 % of control | [5] 95 % of control | [8] 95 % of control

COc1ccc(C2=NNc3n[nH]c(=S)n3N2)cc1OC
inactive: dose: 50.0 mg/kg/injection, schedule: Q01DX009 (ip), vehicle: Klucel (hydroxypropylcellulose) (HPC) 96 % of control | [13] 96 % of control | [14] 112 % of control

CC(=O)OCCCc1ccccc1
inactive: [13] 94 % of control | [3] 98 % of control | [14] 95 % of control | [6] 97 % of control | dose: 400.0 mg/kg/injection, schedule: Q01DX009 (ip), vehicle: Klucel (hydroxypropylcellulose) (HPC) 94 % of control | [9] 94 % of control

CCCCC/C(=C\c1ccccc1)C1OCC(CCl)O1 (stereo not given)
inactive: dose: 222.0 mg/kg/injection, schedule: Q01DX Z (ip), vehicle: saline 100 % of control | dose: 333.0 mg/kg/injection, schedule: Q01DX Z (ip), vehicle: saline 100 % of control | dose: 500.0 mg/kg/injection, schedule: Q01DX Z (ip), vehicle: saline 109 % of control

CC(C)[Si](F)(c1ccc(Br)cc1)C(C)C
inactive: [2] 103 % of control | [5] 95 % of control

CN1CCC=C(CN(c2ccccc2)c2ccccc2)C1
inactive: [15] 93 % of control | [16] 92 % of control | [17] 100 % of control | [18] 96 % of control | [19] 91 % of control | [20] 95 % of control

CC(C)C(C(=O)O)(c1ccccc1)c1ccccc1
inactive: [20] 101 % of control | dose: 200.0 mg/kg/injection, schedule: Q04DX003 (ip), vehicle: saline 103 % of control | dose: 400.0 mg/kg/injection, schedule: Q04DX003 (ip), vehicle: saline 97 % of control

O=C1NC(c2ccccc2)C(c2ccccc2)N1 (stereo not given)
inactive: dose: 100.0 mg/kg/injection, schedule: Q01DX001 (ip), vehicle: saline 97 % of control | dose: 200.0 mg/kg/injection, schedule: Q01DX001 (ip), vehicle: saline 100 % of control | dose: 400.0 mg/kg/injection, schedule: Q01DX001 (ip), vehicle: saline 97 % of control

Cc1cc(Cl)ccc1NC(=O)c1ccc(Cl)c(Cl)c1
inactive: [2] 88 % of control | [10] 100 % of control | [5] 93 % of control | [11] 96 % of control | [8] 93 % of control | [12] 94 % of control

CCCCCCCCCCCCCCCCS(=O)(=O)N/N=C/c1ccc(Cl)c([N+](=O)[O-])c1
inactive: dose: 100.0 mg/kg/injection, schedule: Q01DX001 (ip), vehicle: carboxymethylcellulose (CMC) 98 % of control | dose: 200.0 mg/kg/injection, schedule: Q01DX001 (ip), vehicle: carboxymethylcellulose (CMC) 107 % of control | dose: 400.0 mg/kg/injection, schedule: Q01DX001 (ip), vehicle: carboxymethylcellulose (CMC) 103 % of control

COc1cc2c3c(c1)C(O)CC[N+]3(C)CCC2 (stereo not given)
inactive: dose: 12.5 mg/kg/injection, schedule: Q01DX009 (ip), vehicle: saline 90 % of control | dose: 12.5 mg/kg/injection, schedule: Q04DX003 (ip), vehicle: saline 114 % of control | [15] 95 % of control | [16] 98 % of control | [17] 92 % of control | [18] 112 % of control

NC(=O)c1ccc(OCc2cnc3nc(N)nc(N)c3n2)cc1
inactive: dose: 20.0 mg/kg/injection, schedule: Q01DX009 (ip), vehicle: Klucel (hydroxypropylcellulose) (HPC) 98 % of control | dose: 40.0 mg/kg/injection, schedule: Q01DX009 (ip), vehicle: Klucel (hydroxypropylcellulose) (HPC) 95 % of control | dose: 80.0 mg/kg/injection, schedule: Q01DX009 (ip), vehicle: Klucel (hydroxypropylcellulose) (HPC) 109 % of control

COC(=O)CCC(C(=O)CN1C(=O)c2ccccc2C1=O)N1C(=O)c2ccccc2C1=O (stereo not given)
inactive: [10] 96 % of control | [11] 92 % of control | [12] 92 % of control

CN(C)P(=O)(Nc1ccc(Cl)cc1)Nc1ccc(Cl)cc1
inactive: [3] 94 % of control | [6] 96 % of control | [9] 100 % of control

N#CCCCN1CCCCCC1
inactive: [15] 98 % of control | [16] 101 % of control | [17] 93 % of control | [18] 101 % of control | [20] 101 % of control

O=C(NNC(=O)OCC(Cl)(Cl)Cl)OCC(Cl)(Cl)Cl
inactive: dose: 25.0 mg/kg/injection, schedule: Q04DX002 (ip), vehicle: saline with Tween-80 90 % of control | dose: 50.0 mg/kg/injection, schedule: Q04DX002 (ip), vehicle: saline with Tween-80 87 % of control

O=C(N/N=C\c1cc(Cl)ccc1[N+](=O)[O-])c1ccco1
inactive: dose: 200.0 mg/kg/injection, schedule: Q01DX001 (ip), vehicle: other 93 % of control

CCCCCC[Si]CCCCCC
inactive: [1] 94 % of control | [4] 100 % of control | [7] 94 % of control

O=c1ccn2c(n1)OC1C(O)C(CO)OC12 (stereo not given)
inactive: dose: 100.0 mg/kg/injection, schedule: Q01DX005 (ip), vehicle: saline 103 % of control | [19] 97 % of control | dose: 200.0 mg/kg/injection, schedule: Q01DX005 (ip), vehicle: saline 111 % of control | dose: 200.0 mg/kg/injection, schedule: Q01DX009 (ip), vehicle: saline 109 % of control | dose: 400.0 mg/kg/injection, schedule: Q01DX009 (ip), vehicle: saline 101 % of control

C=CCNc1ccnc(SCc2ccccc2)n1
inactive: dose: 100.0 mg/kg/injection, schedule: Q01DX009 (ip), vehicle: gum acacia 93 % of control | dose: 100.0 mg/kg/injection, schedule: Q04DX003 (ip), vehicle: gum acacia 97 % of control | dose: 200.0 mg/kg/injection, schedule: Q01DX009 (ip), vehicle: gum acacia 110 % of control | dose: 200.0 mg/kg/injection, schedule: Q04DX003 (ip), vehicle: gum acacia 97 % of control | dose: 400.0 mg/kg/injection, schedule: Q01DX009 (ip), vehicle: gum acacia 97 % of control | dose: 400.0 mg/kg/injection, schedule: Q04DX003 (ip), vehicle: gum acacia 92 % of control

CC1CCN(P(c2ccccc2)N2CCC(C)CC2)CC1
inactive: dose: 100.0 mg/kg/injection, schedule: Q04DX002 (ip), vehicle: Klucel (hydroxypropylcellulose) (HPC) 97 % of control | dose: 200.0 mg/kg/injection, schedule: Q04DX002 (ip), vehicle: Klucel (hydroxypropylcellulose) (HPC) 97 % of control | dose: 400.0 mg/kg/injection, schedule: Q04DX002 (ip), vehicle: Klucel (hydroxypropylcellulose) (HPC) 100 % of control

CCOC(=O)C(CC)(OC(C)=O)C(=O)C(O)C1c2nc3ccccc3cc2CN1C(=O)CCOCc1ccccc1 (stereo not given)
inactive: dose: 10.0 mg/kg/injection, schedule: Q07DX002 (ip), vehicle: alcohol 99 % of control | dose: 20.0 mg/kg/injection, schedule: Q07DX002 (ip), vehicle: alcohol 101 % of control | dose: 40.0 mg/kg/injection, schedule: Q07DX002 (ip), vehicle: alcohol 106 % of control | dose: 80.0 mg/kg/injection, schedule: Q07DX002 (ip), vehicle: alcohol 94 % of control
